Patent publication US20150313927A1, “AN EDIBLE COMPOSITION COMPRISING RESVERATROL AND FLAVONOID MONOGLUCOSIDE” (Conopco, Inc., d/b/a UNILEVER, priority 2012, published 2015)
Where “and” joins values, the source holds several entries; their conditions need not be identical. Identical values can stand only once.

Tests used:
[1] = molecular target: T1, GLUT2 (Homo sapiens, UniProt P11168); experiment: Glucose transport inhibitor cell screening assay, 25 mM D-glucose for 30 minutes; settings: for GLUT2 inhibition (in words): Caco-2 cell model; for GLUT2 inhibition (in words) / % Glucose Transport inhibition 25 mM: 25 mM D-glucose; for inhibition at 25000 µM: Caco-2, read-out: % Glucose Transport inhibition 25 mM; for % Glucose Transport inhibition 25 mM: 30 minutes, actives at 150 uM, differentiated Caco-2 monolayer
T1 sequence (P11168 1-524): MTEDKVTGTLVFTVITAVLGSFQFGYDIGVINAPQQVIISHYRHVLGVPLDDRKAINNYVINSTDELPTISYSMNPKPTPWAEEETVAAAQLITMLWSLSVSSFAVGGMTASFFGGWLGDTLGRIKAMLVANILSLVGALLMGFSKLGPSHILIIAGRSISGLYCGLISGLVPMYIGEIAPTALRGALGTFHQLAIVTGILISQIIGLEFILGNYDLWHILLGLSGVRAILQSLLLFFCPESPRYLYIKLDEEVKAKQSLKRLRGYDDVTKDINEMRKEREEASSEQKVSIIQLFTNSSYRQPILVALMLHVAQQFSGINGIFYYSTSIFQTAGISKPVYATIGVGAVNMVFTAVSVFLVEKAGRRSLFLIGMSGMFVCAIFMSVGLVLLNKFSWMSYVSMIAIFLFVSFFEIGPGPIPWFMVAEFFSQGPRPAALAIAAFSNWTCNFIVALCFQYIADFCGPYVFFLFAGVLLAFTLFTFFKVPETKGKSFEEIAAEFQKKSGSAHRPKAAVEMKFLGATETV

[2] = test system: SGLT1; experiment: Glucose transport inhibitor cell screening assay, 5 mM D-glucose for 15 minutes; settings: for SGLT1 inhibitory activity (in words): Caco-2 cell model; for SGLT1 inhibitory activity (in words) / % Glucose Transport inhibition 5 mM: 5 mM D-glucose; for % Glucose Transport inhibition 5 mM: 15 minutes, actives at 300 uM, differentiated Caco-2 monolayer; for Class (assigned class of transporter inhibited): based on inhibition at 5 mM and 25 mM D-glucose
[3] = molecular target: T2, Human Lactase Phloridzin Hydrolase (hLPH) (Homo sapiens, UniProt P09848); experiment: hLPH enzyme assay (glucoside hydrolysis by LPH extract); type: in vitro ADME; settings: for Resistance to hydrolysis - % Q4G: resistance to LPH hydrolysis relative to quercetin-4-glucoside (Q4G); for μM substrate hydrolysed/hr: glucoside 1.0 mM, 10% LPH extract (Caco2), 1 hour, 37° C., pH 6.0
T2 construct: at confluence for 21 days prior to extraction with a Novagen ProteoExtract™ trans-membrane Protein Extraction kit; endogenous in cells; host or cells: Caco-2 cells (ATCC), 21 days at confluence; membrane protein extract desalted over G-25 Sephadex
Method: Extracts were stored at −80° C. in 50 ul aliquots. Prior to use extracts were semi-purified, removing low molecular weight interfering components by passing through a small G-25 Sephadex 50-100 μl spin-column (Roche or ThermoFisher Scientific). 10 μl of semi-purified LPH extract was added to 90 μl of glucoside (1.0 mM final concentration) in 0.1 M maleate (Sigma) buffer, pH 6.0 and incubated for 60 minutes at 37° C. The reaction was terminated by addition of 200 μl 2M Tris (Sigma), pH 8.0. […] This allowed a full recovery of glucose which was measured using the Amplex® Red Glucose/Glucose Oxidase Assay. […] Fluorescence was read on a SpectraMax Gemini EM SN plate reader (Molecular Devices) (excitation. 530 nm and emission at 590 nm).

[4] = test system: differentiated Caco-2 monolayers; experiment: Glucose transport cell model, total cumulative glucose transport (synergy); type: cell-based, Human; settings: active only in 25 mM D-glucose for remaining 45 minutes (NC Pz 300 μM, NC R 75 μM)

T2 sequence (P09848 869-1927): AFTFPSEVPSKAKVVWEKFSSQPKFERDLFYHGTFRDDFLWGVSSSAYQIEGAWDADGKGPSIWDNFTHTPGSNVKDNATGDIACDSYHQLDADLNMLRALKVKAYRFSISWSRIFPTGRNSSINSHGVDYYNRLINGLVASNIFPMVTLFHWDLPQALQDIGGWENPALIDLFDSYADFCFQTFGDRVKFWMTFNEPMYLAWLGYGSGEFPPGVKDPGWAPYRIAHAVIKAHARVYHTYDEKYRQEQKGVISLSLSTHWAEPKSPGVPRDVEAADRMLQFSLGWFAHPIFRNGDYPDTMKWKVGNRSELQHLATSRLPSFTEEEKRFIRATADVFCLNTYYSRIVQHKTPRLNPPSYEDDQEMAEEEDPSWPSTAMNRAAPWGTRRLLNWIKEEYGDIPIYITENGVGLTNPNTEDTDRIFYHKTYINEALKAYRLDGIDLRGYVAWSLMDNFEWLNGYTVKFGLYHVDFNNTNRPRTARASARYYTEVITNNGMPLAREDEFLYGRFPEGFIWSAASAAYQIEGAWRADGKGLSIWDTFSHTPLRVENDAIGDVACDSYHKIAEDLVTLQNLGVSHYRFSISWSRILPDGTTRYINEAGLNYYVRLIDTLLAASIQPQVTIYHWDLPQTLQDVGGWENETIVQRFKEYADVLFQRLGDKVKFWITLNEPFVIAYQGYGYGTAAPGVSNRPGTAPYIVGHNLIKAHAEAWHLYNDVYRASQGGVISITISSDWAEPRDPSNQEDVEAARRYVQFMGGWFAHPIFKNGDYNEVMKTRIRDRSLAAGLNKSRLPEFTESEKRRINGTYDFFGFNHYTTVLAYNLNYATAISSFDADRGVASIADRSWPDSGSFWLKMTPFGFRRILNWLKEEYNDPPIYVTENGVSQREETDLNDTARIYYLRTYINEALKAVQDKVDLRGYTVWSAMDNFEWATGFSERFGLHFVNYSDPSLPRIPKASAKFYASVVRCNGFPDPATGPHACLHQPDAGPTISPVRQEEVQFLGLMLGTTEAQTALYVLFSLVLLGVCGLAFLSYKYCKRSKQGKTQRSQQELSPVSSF

O=C(/C=C/c1ccc(O)c(O)c1)O[C@H](Cc1ccc(O)c(O)c1)C(=O)O [rosmarinic acid]
GLUT2 inhibition (in words) [1]: no inhibitory activity
SGLT1 inhibitory activity (in words) [2]: no inhibitory activity

Oc1cc(O)cc(/C=C/c2ccc(O)c(O)c2)c1 [Piceatannol]
inhibition at 25000 µM [1]: 32.7%
% Glucose Transport inhibition 5 mM [2]: 89.28%
Class (assigned class of transporter inhibited) [2]: GLUT2 (GLUT2 having >20% inhibition at both 5 mM & 25 mM)

COc1cc(-c2[o+]c3cc(O)cc(O)c3cc2O[C@@H]2O[C@H](CO)[C@@H](O)[C@H](O)[C@H]2O)cc(OC)c1O [Malvidin-3-O-glucoside]
% Glucose Transport inhibition 25 mM [1]: 10.91%

O=C(O)/C=C/c1ccc(O)c(O)c1 [caffeic acid]
GLUT2 inhibition (in words) [1]: no inhibitory activity
SGLT1 inhibitory activity (in words) [2]: no inhibitory activity

O=C1CC(c2ccc(O)cc2)Oc2cc(O[C@@H]3O[C@H](CO)[C@@H](O)[C@H](O)[C@H]3O)cc(O)c21 (stereo partly drawn) [Naringenin-7-O-glucoside]
% Glucose Transport inhibition 25 mM [1]: 0.06%
Resistance to hydrolysis - % Q4G ([3]; listed as N7G): 49.5% and 49.52%

Oc1cc(O)c2cc(O)c(-c3cc(O)c(O)c(O)c3)[o+]c2c1 [Delphinindin]
% Glucose Transport inhibition 25 mM [1]: 15.86%
Class (assigned class of transporter inhibited) [2]: None

O=c1cc(-c2ccc(O)c(O)c2)oc2cc(O[C@@H]3O[C@H](CO)[C@@H](O)[C@H](O)[C@H]3O)cc(O)c12 [Luteolin-7-glucoside]
% Glucose Transport inhibition 25 mM [1]: 17.03%
% Glucose Transport inhibition 5 mM [2]: 44.09%
SGLT1 inhibitory activity (in words) [2]: inhibition of SGLT1
Class (assigned class of transporter inhibited) [2]: SGLT1
μM substrate hydrolysed/hr [3]: 0.814 μM substrate hydrolysed/hr
Resistance to hydrolysis - % Q4G ([3]; listed as L7G): 73.72%

O=c1c(-c2ccc(O)cc2)coc2cc(O[C@@H]3O[C@H](CO)[C@@H](O)[C@H](O)[C@H]3O)ccc12 [Daidzein-7-glucoside]
% Glucose Transport inhibition 25 mM [1]: 7.23%
% Glucose Transport inhibition 5 mM [2]: 35.03%
SGLT1 inhibitory activity (in words) [2]: inhibition of SGLT1
Class (assigned class of transporter inhibited) [2]: SGLT1

O=C1C[C@@H](c2ccc(O)c(O)c2)Oc2cc(O[C@@H]3O[C@H](CO)[C@@H](O)[C@H](O)[C@H]3O)cc(O)c21 [Eriodictyol-7-O-glucoside]
% Glucose Transport inhibition 25 mM [1]: 4.98%

O=c1cc(-c2ccc(O)cc2)oc2cc(OC3O[C@H](CO)[C@@H](O)[C@H](O)[C@H]3O)cc(O)c12 (stereo partly drawn) [Apigenin-7-glucoside]
% Glucose Transport inhibition 25 mM [1]: 12.81%

O=c1c(O[C@@H]2O[C@H](CO)[C@@H](O)[C@H](O)[C@H]2O)c(-c2ccc(O)cc2)oc2cc(O)cc(O)c12 [Kaempferol 3-O-glucoside]
Resistance to hydrolysis - % Q4G ([3]; listed as K3G): 92.8% and 92.78%

Oc1ccc(-c2[o+]c3cc(O)cc(O)c3cc2O)cc1 [Pelargonidin]
inhibition at 25000 µM [1]: 16.5%
% Glucose Transport inhibition 5 mM [2]: 4.07%

COc1cc(-c2[o+]c3cc(O)cc(O)c3cc2O)cc(OC)c1O [Malvidin]
inhibition at 25000 µM [1]: 4.99%
% Glucose Transport inhibition 5 mM [2]: 14.21%

OC[C@H]1O[C@@H](Oc2ccc(O)cc2)[C@H](O)[C@@H](O)[C@@H]1O [arbutin]
SGLT1 inhibitory activity (in words) [2]: lack of SGLT1 inhibitory activity

Oc1cc(O)c2cc(O)c(-c3ccc(O)c(O)c3)[o+]c2c1 [Cyanidin]
% Glucose Transport inhibition 5 mM [2]: 7.93%

O=C(CCc1ccc(O)cc1)c1c(O)cc(O)cc1O[C@@H]1O[C@H](CO)[C@@H](O)[C@H](O)[C@H]1O [Phloridzin, reference compound]
inhibition at 25000 µM [1]: 18.4%
μM substrate hydrolysed/hr [3]: 0.507 μM substrate hydrolysed/hr
Resistance to hydrolysis - % Q4G [3]: at least 20%
Resistance to hydrolysis - % Q4G ([3]; listed as PLZ): 83.64%
total Cumulative Glucose Transport (tCGT), active added later with high D-glucose [4]: no inhibition

O=c1c(O)c(-c2ccc(O)cc2)oc2cc(O[C@@H]3O[C@H](CO)[C@@H](O)[C@H](O)[C@H]3O)cc(O)c12 [Kaempferol 7-O-glucoside]
% Glucose Transport inhibition 25 mM [1]: 14.42%
% Glucose Transport inhibition 5 mM [2]: 43.89%
SGLT1 inhibitory activity (in words) [2]: inhibition of SGLT1
Class (assigned class of transporter inhibited) [2]: SGLT1
μM substrate hydrolysed/hr [3]: 0.618 μM substrate hydrolysed/hr
Resistance to hydrolysis - % Q4G ([3]; listed as K7G): 80.05%

O=c1cc(-c2ccc(O)cc2)oc2c([C@@H]3O[C@H](CO)[C@@H](O)[C@H](O)[C@H]3O)c(O)cc(O)c12 [Apigenin-8-C-glucoside]
% Glucose Transport inhibition 25 mM [1]: 5.76%
% Glucose Transport inhibition 5 mM [2]: 33.84%
SGLT1 inhibitory activity (in words) [2]: inhibition of SGLT1
Class (assigned class of transporter inhibited) [2]: SGLT1
μM substrate hydrolysed/hr [3]: 0.685 μM substrate hydrolysed/hr
Resistance to hydrolysis - % Q4G ([3]; listed as A8G): 77.90%

Oc1ccc(C=Cc2cc(O)cc(O)c2)cc1 [Resveratrol]
inhibition at 25000 µM [1]: 59%
GLUT2 inhibition (in words) [1]: GLUT2 inhibitors
% Glucose Transport inhibition 5 mM [2]: 76.07%
Class (assigned class of transporter inhibited) [2]: GLUT2 (GLUT2 having >20% inhibition at both 5 mM & 25 mM)
total Cumulative Glucose Transport (tCGT), active added later with high D-glucose [4]: significant reduction

COc1cc(/C=C/c2ccc(O)cc2)cc(OC)c1 [Pterostilbene]
inhibition at 25000 µM [1]: 8.26%
% Glucose Transport inhibition 5 mM [2]: 18.44%

O=c1c(-c2ccc(O)cc2)coc2c([C@@H]3O[C@H](CO)[C@@H](O)[C@H](O)[C@H]3O)c(O)ccc12 [Daidzein-8-C-glucoside]
Resistance to hydrolysis - % Q4G ([3]; listed as D8G): 82.19%

O=C(/C=C/c1ccc(O)c(O)c1)O[C@@H]1C[C@](O)(C(=O)O)C[C@@H](O)[C@H]1O [chlorogenic acid]
GLUT2 inhibition (in words) [1]: no inhibitory activity
SGLT1 inhibitory activity (in words) [2]: no inhibitory activity

COc1cc(-c2[o+]c3cc(O)cc(O)c3cc2O[C@@H]2O[C@H](CO)[C@H](O)[C@H](O)[C@H]2O)cc(OC)c1O [Malvidin 3-O-Galactoside]
% Glucose Transport inhibition 25 mM [1]: 10.41%

OC[C@H]1O[C@@H](Oc2cc3c(O)cc(O)cc3[o+]c2-c2ccc(O)cc2)[C@H](O)[C@@H](O)[C@@H]1O [Pelargonidin-3-glucoside]
Resistance to hydrolysis - % Q4G ([3]; listed as P3G): 58.94%
